Test results: BindingDB's records for doi:10.1007/s00044-007-9043-6 (Central Drug Research Institute, 2008)

These compounds were tested against T1, Tyrosine-protein phosphatase non-receptor type 1 (Homo sapiens, UniProt P18031) (assay: In Vitro Assay). Settings: pH 7.
T1 sequence (P18031 whole entry): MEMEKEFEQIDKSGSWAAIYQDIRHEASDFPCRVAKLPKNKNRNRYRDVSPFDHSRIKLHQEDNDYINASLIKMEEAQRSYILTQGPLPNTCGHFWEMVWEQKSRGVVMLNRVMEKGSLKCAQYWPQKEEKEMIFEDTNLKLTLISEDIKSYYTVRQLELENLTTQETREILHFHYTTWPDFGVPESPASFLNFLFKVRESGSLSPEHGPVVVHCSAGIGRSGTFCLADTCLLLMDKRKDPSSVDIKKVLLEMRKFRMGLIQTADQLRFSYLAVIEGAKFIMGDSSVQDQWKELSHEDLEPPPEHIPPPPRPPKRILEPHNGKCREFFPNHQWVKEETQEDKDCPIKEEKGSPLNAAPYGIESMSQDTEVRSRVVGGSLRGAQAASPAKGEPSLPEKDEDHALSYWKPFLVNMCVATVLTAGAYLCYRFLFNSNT
Protocol: The effect of the test compounds on PTP1B was studied by preincubating the test compound with enzyme in the reaction system for 10 min and determining the residual enzyme activity according to the Goldstein method.

| IC50 [µM] | Ki [µM] | Structure (SMILES) |
| --- | --- | --- |
| 70 | 30 | COc1c(C2=NOC(c3ccccc3)C2)ccc2c1C=CC(C)(C)O2 (stereo not given) [PTP1B Inhibitor, 5] |
| 91 | 56 | COc1ccc(C2CC(c3ccc4c(c3OC)C=CC(C)(C)O4)=NO2)cc1 (stereo not given) [PTP1B Inhibitor, 6] |
| 87 | 34 | COc1c(C2=NOC(c3ccccn3)C2)ccc2c1C=CC(C)(C)O2 (stereo not given) [PTP1B Inhibitor, 7] |
| 69 | 48 | COc1cc(C=O)ccc1C1=NOC(c2ccccc2)C1 (stereo not given) [PTP1B Inhibitor, 10] |
| 67 | 48 | COc1ccc(C2CC(c3ccc(C=O)cc3OC)=NO2)cc1 (stereo not given) [PTP1B Inhibitor, 11] |
| 485 | 170 | COc1cc(C=O)ccc1C1=NOC(c2ccccn2)C1 (stereo not given) [PTP1B Inhibitor, 12] |
| 275 | 150 | COc1cc(C=O)ccc1C1=NOC(c2ccncc2)C1 (stereo not given) [PTP1B Inhibitor, 13] |
| 88 | 63 | COc1cc(C=O)ccc1C1=NOC(n2ccnc2)C1 (stereo not given) [PTP1B Inhibitor, 14] |
| 165 | 135 | COC(=O)C1C(c2ccc(C=O)cc2OC)=NOC1c1ccccc1 (stereo not given) [PTP1B Inhibitor, 15] |
| 62.7 | 25 | CC(=O)Oc1ccc(C2=NOC(c3ccccc3)C2)c(OC(C)=O)c1 (stereo not given) [PTP1B Inhibitor, 19] |
